What was measured:
SK-OV-3 = assay: Growth inhibition of human SKOV3 cells incubated for 48 hrs by sulforhodamine B assay; format: functional, cell-based; conditions: SK-OV-3, 48 h
BT-549 = assay: Growth inhibition of human BT549 cells incubated for 48 hrs by sulforhodamine B assay; format: functional, cell-based; conditions: BT-549, 48 h
NCI-H322M [1] = assay: Growth inhibition of human NCI-H322M cells assessed as cell growth at 0.01 uM incubated for 48 hrs by sulforhodamine B assay relative to control; format: functional; conditions: read-out: Activity
NCI-H522 [2] = assay: Growth inhibition of human NCI-H522 cells assessed as cell growth at 0.01 uM incubated for 48 hrs by sulforhodamine B assay relative to control; format: functional; conditions: NCI-H522, 48 h, read-out: Activity
SW-620 [3] = assay: Growth inhibition of human SW620 cells assessed as cell growth at 0.01 uM incubated for 48 hrs by sulforhodamine B assay relative to control; format: functional; conditions: SW-620, 48 h, read-out: Activity
LOX IMVI [4] = assay: Growth inhibition of human LOXIMVI cells assessed as cell growth at 0.01 uM incubated for 48 hrs by sulforhodamine B assay relative to control; format: functional; conditions: read-out: Activity
SK-MEL-5 = assay: Growth inhibition of human SK-MEL-5 cells assessed as cell growth at 0.01 uM incubated for 48 hrs by sulforhodamine B assay relative to control; format: functional; conditions: SK-MEL-5, 48 h, read-out: Activity
UACC-257 = assay: Growth inhibition of human UACC257 cells assessed as cell growth at 0.01 uM incubated for 48 hrs by sulforhodamine B assay relative to control; format: functional; conditions: UACC-257, 48 h, read-out: Activity
UACC-62 = assay: Growth inhibition of human UACC62 cells assessed as cell growth at 0.01 uM incubated for 48 hrs by sulforhodamine B assay relative to control; format: functional; conditions: UACC-62, 48 h, read-out: Activity
786-0 [5] = assay: Growth inhibition of human 786-0 cells assessed as cell growth at 0.01 uM incubated for 48 hrs by sulforhodamine B assay relative to control; format: functional; conditions: 786-0, 48 h, read-out: Activity
PC-3 = assay: Growth inhibition of human PC3 cells assessed as cell growth at 0.01 uM incubated for 48 hrs by sulforhodamine B assay relative to control; format: functional; conditions: PC-3, 48 h, read-out: Activity
DU-145 [6] = assay: Growth inhibition of human DU145 cells assessed as cell growth at 0.01 uM incubated for 48 hrs by sulforhodamine B assay relative to control; format: functional; conditions: DU-145, 48 h, read-out: Activity
MDA-MB-231 = assay: Growth inhibition of human MDA-MB-231 cells assessed as cell growth at 0.01 uM incubated for 48 hrs by sulforhodamine B assay relative to control; format: functional; conditions: MDA-MB-231, 48 h, read-out: Activity
MDA-MB-468 = assay: Growth inhibition of human MDA-MB-468 cells assessed as cell growth at 0.01 uM incubated for 48 hrs by sulforhodamine B assay relative to control; format: functional; conditions: MDA-MB-468, 48 h, read-out: Activity
NCI-H322M [7] = assay: Growth inhibition of human NCI-H322M cells assessed as cell growth at 0.1 uM incubated for 48 hrs by sulforhodamine B assay relative to control; format: functional; conditions: read-out: Activity
NCI-H460 = assay: Growth inhibition of human NCI-H460 cells assessed as cell growth at 0.1 uM incubated for 48 hrs by sulforhodamine B assay relative to control; format: functional; conditions: NCI-H460, 48 h, read-out: Activity
LOX IMVI [8] = assay: Growth inhibition of human LOXIMVI cells assessed as cell growth at 0.1 uM incubated for 48 hrs by sulforhodamine B assay relative to control; format: functional; conditions: read-out: Activity
786-0 [9] = assay: Growth inhibition of human 786-0 cells assessed as cell growth at 0.1 uM incubated for 48 hrs by sulforhodamine B assay relative to control; format: functional; conditions: 786-0, 48 h, read-out: Activity
A498 = assay: Growth inhibition of human A498 cells assessed as cell growth at 0.1 uM incubated for 48 hrs by sulforhodamine B assay relative to control; format: functional; conditions: A498, 48 h, read-out: Activity
COLO 205 = assay: Growth inhibition of human COLO205 cells assessed as cell growth at 1 uM incubated for 48 hrs by sulforhodamine B assay relative to control; format: functional; conditions: COLO 205, 48 h, read-out: Activity
SW-620 [10] = assay: Growth inhibition of human SW620 cells assessed as cell growth at 1 uM incubated for 48 hrs by sulforhodamine B assay relative to control; format: functional; conditions: SW-620, 48 h, read-out: Activity
SF-295 [11] = assay: Growth inhibition of human SF295 cells assessed as cell growth at 1 uM incubated for 48 hrs by sulforhodamine B assay relative to control; format: functional; conditions: SF-295, 48 h, read-out: Activity
SNB-19 = assay: Growth inhibition of human SNB19 cells assessed as cell growth at 1 uM incubated for 48 hrs by sulforhodamine B assay relative to control; format: functional; conditions: SNB-19, 48 h, read-out: Activity
SNB-75 [12] = assay: Growth inhibition of human SNB75 cells assessed as cell growth at 1 uM incubated for 48 hrs by sulforhodamine B assay relative to control; format: functional; conditions: SNB-75, 48 h, read-out: Activity
OVCAR-5 = assay: Growth inhibition of human OVCAR5 cells assessed as cell growth at 1 uM incubated for 48 hrs by sulforhodamine B assay relative to control; format: functional; conditions: OVCAR-5, 48 h, read-out: Activity
CAKI-1 = assay: Growth inhibition of human Caki1 cells assessed as cell growth at 1 uM incubated for 48 hrs by sulforhodamine B assay relative to control; format: functional; conditions: CAKI-1, 48 h, read-out: Activity
DU-145 [13] = assay: Growth inhibition of human DU145 cells assessed as cell growth at 1 uM incubated for 48 hrs by sulforhodamine B assay relative to control; format: functional; conditions: DU-145, 48 h, read-out: Activity
NCI-H522 [14] = assay: Growth inhibition of human NCI-H522 cells assessed as cell growth at 100 uM incubated for 48 hrs by sulforhodamine B assay relative to control; format: functional; conditions: NCI-H522, 48 h, read-out: Activity
SF-295 [15] = assay: Growth inhibition of human SF295 cells assessed as cell growth at 100 uM incubated for 48 hrs by sulforhodamine B assay relative to control; format: functional; conditions: SF-295, 48 h, read-out: Activity
SNB-75 [16] = assay: Growth inhibition of human SNB75 cells assessed as cell growth at 100 uM incubated for 48 hrs by sulforhodamine B assay relative to control; format: functional; conditions: SNB-75, 48 h, read-out: Activity
M14 = assay: Growth inhibition of human M14 cells assessed as cell growth at 100 uM incubated for 48 hrs by sulforhodamine B assay relative to control; format: functional; conditions: M14, 48 h, read-out: Activity
OVCAR-4 = assay: Growth inhibition of human OVCAR4 cells assessed as cell growth at 100 uM incubated for 48 hrs by sulforhodamine B assay relative to control; format: functional; conditions: OVCAR-4, 48 h, read-out: Activity
SN12C = assay: Growth inhibition of human SN12C cells assessed as cell growth at 100 uM incubated for 48 hrs by sulforhodamine B assay relative to control; format: functional; conditions: read-out: Activity
[17] = read-out: LC50 (the source's name)
[18] = read-out: pLC50 (the source's name) (converted)

## O=C(Nc1cccc(-n2cc(-c3ccncc3)c(-c3cc(O)cc(Cl)c3)n2)c1)Nc1ccc(Cl)c(Cl)c1
SK-OV-3; read-out: GI50
  GI50: 3.42 µM
SK-OV-3; [17]
  CC50: > 100 µM
SK-OV-3; read-out: TGI
  TGI: 94.3 µM
SK-OV-3; read-out: pGI50 (converted)
  GI50: 3.39 µM
SK-OV-3; [18]
  CC50: > 100 µM
SK-OV-3; read-out: pTGI (converted)
  TGI: 9.33 µM
BT-549; read-out: GI50
  GI50: 2.06 µM
BT-549; [17]
  CC50: > 100 µM
BT-549; read-out: TGI
  TGI: 52.2 µM
BT-549; read-out: pGI50 (converted)
  GI50: 2.04 µM
BT-549; [18]
  CC50: > 100 µM
BT-549; read-out: pTGI (converted)
  TGI: 5.25 µM
NCI-H322M [1]
  growth at 0.01 µM: 52%
NCI-H522 [2]
  growth at 0.01 µM: 88%
SW-620 [3]
  growth at 0.01 µM: 96%
LOX IMVI [4]
  growth at 0.01 µM: 106%
SK-MEL-5
  growth at 0.01 µM: 95%
UACC-257
  growth at 0.01 µM: 96%
UACC-62
  growth at 0.01 µM: 96%
786-0 [5]
  growth at 0.01 µM: 92%
PC-3
  growth at 0.01 µM: 90%
DU-145 [6]
  growth at 0.01 µM: 108%
MDA-MB-231
  growth at 0.01 µM: 94%
MDA-MB-468
  growth at 0.01 µM: 92%
NCI-H322M [7]
  growth at 0.1 µM: 88%
NCI-H460
  growth at 0.1 µM: 97%
LOX IMVI [8]
  growth at 0.1 µM: 105%
786-0 [9]
  growth at 0.1 µM: 90%
A498
  growth at 0.1 µM: 94%
COLO 205
  growth at 1 µM: 101%
SW-620 [10]
  growth at 1 µM: 102%
SF-295 [11]
  growth at 1 µM: 77%
SNB-19
  growth at 1 µM: 90%
SNB-75 [12]
  growth at 1 µM: 63%
OVCAR-5
  growth at 1 µM: 56%
CAKI-1
  growth at 1 µM: 54%
DU-145 [13]
  growth at 1 µM: 90%
NCI-H522 [14]
  growth at 100 µM: -55%
SF-295 [15]
  growth at 100 µM: -58%
SNB-75 [16]
  growth at 100 µM: -15%
M14
  growth at 100 µM: -69%
OVCAR-4
  growth at 100 µM: 9%
SN12C
  growth at 100 µM: -15%

## COc1cc(Cl)cc(-c2nn(-c3cccc(NC(=O)Nc4cc(C(F)(F)F)cc(C(F)(F)F)c4)c3)cc2-c2ccncc2)c1
SK-OV-3
  IC50: 0.77 µM
SK-OV-3; read-out: GI50
  GI50: 0.77 µM
SK-OV-3; [17]
  CC50: 0.0412 µM
SK-OV-3; read-out: TGI
  TGI: 5.75 µM
SK-OV-3; read-out: pGI50 (converted)
  GI50: 0.776 µM
SK-OV-3; [18]
  CC50: 41.7 µM
SK-OV-3; read-out: pTGI (converted)
  TGI: 5.75 µM
BT-549
  IC50: 2.22 µM
BT-549; read-out: GI50
  GI50: 2.22 µM
BT-549; read-out: TGI
  TGI: 7.14 µM
BT-549; read-out: pGI50 (converted)
  GI50: 2.82 µM
BT-549; [18]
  CC50: 61.7 µM
BT-549; read-out: pTGI (converted)
  TGI: 7.08 µM
NCI-H322M [1]
  growth at 0.01 µM: 100%
NCI-H522 [2]
  growth at 0.01 µM: 93%
SW-620 [3]
  growth at 0.01 µM: 98%
SK-MEL-5
  growth at 0.01 µM: 100%
UACC-257
  growth at 0.01 µM: 96%
UACC-62
  growth at 0.01 µM: 96%
786-0 [5]
  growth at 0.01 µM: 96%
PC-3
  growth at 0.01 µM: 101%
DU-145 [6]
  growth at 0.01 µM: 104%
MDA-MB-231
  growth at 0.01 µM: 97%
MDA-MB-468
  growth at 0.01 µM: 97%
NCI-H322M [7]
  growth at 0.1 µM: 95%
NCI-H460
  growth at 0.1 µM: 101%
786-0 [9]
  growth at 0.1 µM: 92%
A498
  growth at 0.1 µM: 69%
COLO 205
  growth at 1 µM: 24%
SW-620 [10]
  growth at 1 µM: 19%
SF-295 [11]
  growth at 1 µM: 12%
SNB-19
  growth at 1 µM: 28%
SNB-75 [12]
  growth at 1 µM: 48%
OVCAR-5
  growth at 1 µM: 59%
CAKI-1
  growth at 1 µM: 22%
DU-145 [13]
  growth at 1 µM: 27%
NCI-H522 [14]
  growth at 100 µM: -69%
SF-295 [15]
  growth at 100 µM: -63%
SNB-75 [16]
  growth at 100 µM: -58%
M14
  growth at 100 µM: -82%
OVCAR-4
  growth at 100 µM: -22%
SN12C
  growth at 100 µM: -61%
